The values that follow are results of earlier work, collected in patent US20160067252A1, “TRANSDERMAL DELIVERY OF SILDENAFIL AND OTHER PHOSPHODIESTERASE TYPE 5 INHIBITORS” (STRATEGIC SCIENCE & TECHNOLOGIES, LLC, priority 2013, published 2016).

As for `CCCOc1ccc(S(=O)(=O)N2CCN(CCO)CC2)cc1-c1nc2c(CCC)cn(CC)c2c(=O)[nH]1` [mirodenafil], the pKa is on record as 6.0.

On to `CN1CC(=O)N2[C@H](c3ccc4c(c3)OCO4)c3[nH]c4ccccc4c3C[C@@H]2C1=O` [tadalafil], for which the pKa was 18.

For the molecule `CCCOc1ccc(S(=O)(=O)NCCC2CCCN2C)cc1-c1nc2c(CCC)nn(C)c2c(=O)[nH]1` (stereo not drawn) [udenafil], the pKa is 10.53.
